Common to all, as to experiment: NCI tumour cell line growth inhibition, 48 h
Experiment [1] deals with ACHN renal.
In experiment [2] the test system is OVCAR-3 ovarian.
Experiment [3] relates to SK-MEL-5 melanoma.
The test system of experiment [4] is MDA-MB-231 breast.
Experiment [5] has as its system HL-60(TB) leukemia.
Experiment [6] deals with HCC-2998 colon.
For experiment [7], the system named is HOP-62 NSCLC.
Experiment [8] deals with UO-31 renal.

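All cell lines were grown in 96-well plates and treated with compound for 48 hours. GI50 = concentration required for 50% inhibition of growth. TGI is the concentration that stops growth completely.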

Consider `CCCCCCNC(=O)n1cc(F)c(=O)[nH]c1=O`, for which the GI50 in experiment [1] is 4.86 µM; in experiment [2] it was 11.1 µM; in experiment [3] it was 3.54 µM; in experiment [4], 10.2 µM; in experiment [5] it was 6.84 µM; in experiment [6], 0.287 µM. Further, the GI50 in experiment [7] is 7.09 µM. Further, the TGI in experiment [1] is 23 µM; in experiment [2], greater than 100 µM; in experiment [3], 27.1 µM; in experiment [4], 24.5 µM; in experiment [5] it was 30.6 µM; in experiment [6], 18.4 µM. For the same compound, the TGI in experiment [7] was found to be 21.5 µM.
For `COC(=O)c1ccc2c(c1)C(=O)c1c-2n(CCCN)c(=O)c2cc(OC)c(OC)cc12`, the GI50 is 14.8 µM in experiment [1]; 10.2 µM in experiment [2]; 21 µM in experiment [8]; 17.4 µM in experiment [3]; 13.6 µM in experiment [4]; 11.9 µM in experiment [6]. In experiment [7], the GI50 is 6.09 µM. Moreover, the TGI in experiment [1] is 29.8 µM; in experiment [2], greater than 56.8 µM; in experiment [8] it was greater than 56.2 µM; in experiment [3], 34.3 µM; in experiment [4], 31.5 µM; in experiment [6] it was 25.9 µM. Moreover, the TGI in experiment [7] was greater than 52.9 µM.
Take `CCCCN(CC)c1ncnc2ccc(Br)cc12`: the GI50 in experiment [1] was 14.5 µM; in experiment [2] it was 15.8 µM; in experiment [8], 19.9 µM; in experiment [3], 16.1 µM; in experiment [6], 20.5 µM; in experiment [7], 16.9 µM. Besides, the TGI in experiment [1] stood at 40.3 µM; in experiment [2], 32.5 µM; in experiment [8] it was 98.7 µM; in experiment [3] it was 33.4 µM; in experiment [6], 44.2 µM; in experiment [7], 34 µM.
Turning to `COC(=O)C(=O)C(C(=O)C(N)=O)c1nc2ccc(C(=O)c3ccccc3)cc2[nH]c1=O` (stereo not drawn), the TGI in experiment [1], in experiment [2], in experiment [3], in experiment [4], in experiment [5] and in experiment [6] was greater than 100 µM each time. In experiment [7], this compound displayed a TGI greater than 100 µM.
Take `CCCCN(CCCC)CCc1c(C)cc(C)c(CCN(CCCC)CCCC)c1O`: the GI50 in experiment [1] is 3.47 µM; in experiment [8], 2.69 µM; in experiment [3], 1.97 µM; in experiment [4] it was 2.43 µM; in experiment [5] it was 2.51 µM; in experiment [6], 3.17 µM. In experiment [7], the GI50 is 3.3 µM. In addition, the TGI in experiment [1] is greater than 100 µM; in experiment [8] it was 16.8 µM; in experiment [3] it was 4.1 µM; in experiment [4], 8.56 µM; in experiment [5], 8.17 µM; in experiment [6], 32.6 µM. In experiment [7], this compound registered a TGI of 16.8 µM.
Consider `C[C@]12CC[C@@H](OC(=O)N(CCCl)N=O)C[C@@H]1CC[C@@H]1[C@@H]2CC[C@]2(C)C(=O)CC[C@@H]12`, for which the GI50 in experiment [1] is 0.487 µM; in experiment [2] it was 5.76 µM; in experiment [8] it was 4.22 µM; in experiment [3], 3.93 µM; in experiment [4] it was 13.5 µM; in experiment [6], 2.77 µM. Also, the GI50 in experiment [7] is 5.48 µM. Besides, the TGI in experiment [1] was determined as 13.8 µM; in experiment [2], 19.9 µM; in experiment [8], 18.1 µM; in experiment [3], 19.5 µM; in experiment [4], 29.8 µM; in experiment [6] it was 9.43 µM. Moreover, in experiment [7], the TGI came out at 27 µM.
Regarding `Nc1nc(N)nc(CC(=O)O)n1`, the TGI in experiment [1], in experiment [2], in experiment [8], in experiment [3], in experiment [4] and in experiment [5] was greater than 100 µM each time. In addition, in experiment [7], the TGI is greater than 100 µM.
With `C[C@]12CC[C@H]3[C@@H](CC[C@]4(O)C[C@@H](O)CC[C@]34CO)[C@@]1(O)CC[C@@H]2C1=CC(=O)OC1`, the TGI was 7.08 µM in experiment [1]; 3.21 µM in experiment [2]; 5.08 µM in experiment [3]; greater than 51.3 µM in experiment [4]; 8.23 µM in experiment [5]; 67.9 µM in experiment [6]. For the same compound, the TGI in experiment [7] was 3.89 µM.
In the case of `COc1cc2c3c(ncc2c(OC)c1OC)-c1cc2c(cc1C3)OCO2`, the GI50 was 20.7 µM in experiment [1]; 19.8 µM in experiment [8]; 54.1 µM in experiment [3]; 11.5 µM in experiment [4]; 0.0288 µM in experiment [5]; greater than 100 µM in experiment [6]. The TGI is 47.2 µM in experiment [1]; 68 µM in experiment [8]; greater than 100 µM in experiment [3]; 29.5 µM in experiment [4]; 4.26 µM in experiment [5]; greater than 100 µM in experiment [6].
As for `O=C(O)c1cccc(/C=C/c2ccccc2)c1`, the TGI in experiment [1], in experiment [2], in experiment [8], in experiment [3], in experiment [4] and in experiment [7] was greater than 100 µM throughout.
For the compound `COC(=O)[C@H]1[C@H]2C[C@@H]3c4[nH]c5cc(OC)ccc5c4CCN3C[C@H]2C[C@@H](OC(=O)/C=C/c2cc(OC)c(OC)c(OC)c2)[C@@H]1OC`, the GI50 in experiment [1] is 4.05 µM; in experiment [2], 2.62 µM; in experiment [8], 9.63 µM; in experiment [3], 3.66 µM; in experiment [4] it was 10.6 µM; in experiment [6], 24.2 µM. The GI50 in experiment [7] is 5.99 µM. The TGI in experiment [1] was 21.5 µM; in experiment [2], 6.2 µM; in experiment [8], 33.5 µM; in experiment [3], 15.5 µM; in experiment [4], 41.8 µM; in experiment [6], greater than 100 µM. For the same compound, the TGI in experiment [7] worked out at 25.5 µM.
In the case of `NNS(=O)(=O)c1cc(C(=O)O)cc(C(=O)O)c1`, the TGI in experiment [1], in experiment [2], in experiment [8], in experiment [3], in experiment [4] and in experiment [5] was greater than 100 µM in each case. This compound had a TGI in experiment [7] greater than 100 µM.

The record behind these values is PubChem BioAssay (NCI).
